Read-outs that look alike come from different tables or passages of the source.
Assays:
[1] = Microsome stability assay, human liver microsomes; assay type: in vitro ADME; settings: 1 μM compound, 0.5 mg/mL microsomal protein; for microsomal CLint at 1 h, 1 µM / half-life at 1 h, 1 µM / microsomal CLint at 1 μM / half-life at 1 μM: human, human liver microsomes, pooled, NADPH, 37° C.; for microsomal CLint at 1 h, 1 µM / microsomal CLint at 1 μM: read-out: Microsome Stability Human liver microsomes Cl; for half-life at 1 h, 1 µM / half-life at 1 μM: read-out: Microsome Stability Human liver microsomes T½
Method in brief: (§1)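 Compound at 1 μM incubated at 37° C with pooled human or mouse liver microsomes (0.5 mg/mL protein) plus NADPH regenerating system, sampled at 0–60 min; a 60-min no-NADPH incubation also included. Single replicate; LC/MS/MS disappearance from analyte/internal standard peak area ratios, without standard curve.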

HSD17B2 = HSD17B2 (Homo sapiens (Human), UniProt P37059); assay: HSD17B2 enzymatic blocking assay; assay type: biochemical; settings: 1.8 μM Estradiol, 650 μM NAD; read-out: Inhibition of HSD17B2 IC50
Method in brief: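 Mammalian-expressed enzyme at 2 ng/μL in 50 mM Tris-HCl pH 7.5 with detergents/BSA, preincubated 15 min at 20° C. with compound (10-point titration). Reaction with 1.8 μM estradiol and 650 μM NAD ran 45 min at 20° C.; NADH measured by NADH-Glo luminescence and IC50 derived.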

HSD17B13 = HSD17B13 (Homo sapiens (Human), UniProt Q7Z5P4); assay: HSD17B13 enzymatic inhibition assay (150 nM or 50 nM HSD17B13); assay type: biochemical
HSD17B1 = HSD17B1 (Homo sapiens (Human), UniProt P14061); assay: HSD17B1 enzymatic blocking assay; assay type: biochemical; settings: 25 μM Estradiol, 500 μM NAD; read-out: Inhibition of HSD17B1 IC50
Method in brief: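 Activity followed as NADH formed on estradiol oxidation, read by NADH-Glo luminescence after 1 h detection in the dark at room temperature. Compounds preincubated with enzyme 30 min at room temperature; 0.5% DMSO and no-substrate controls. IC50 fitted from luminescence.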

[2] = Microsome stability assay, mouse liver microsomes; assay type: in vitro ADME; settings: 1 μM compound, 0.5 mg/mL microsomal protein; for microsomal CLint at 1 h, 1 µM / half-life at 1 h, 1 µM / microsomal CLint at 1 μM / half-life at 1 μM: mouse, mouse liver microsomes, pooled, NADPH, 37° C.; for microsomal CLint at 1 h, 1 µM / microsomal CLint at 1 μM: read-out: Microsome Stability Mouse liver microsomes Cl; for half-life at 1 h, 1 µM / half-life at 1 μM: read-out: Microsome Stability Mouse liver microsomes T½
Method in brief: as §1

[3] = 50 nM HSD17B13, read-out: Inhibition of 50 nM of HSD17B13 IC50

Sequence of HSD17B1 (P14061 other isoform, or with tags, fused parts or gaps): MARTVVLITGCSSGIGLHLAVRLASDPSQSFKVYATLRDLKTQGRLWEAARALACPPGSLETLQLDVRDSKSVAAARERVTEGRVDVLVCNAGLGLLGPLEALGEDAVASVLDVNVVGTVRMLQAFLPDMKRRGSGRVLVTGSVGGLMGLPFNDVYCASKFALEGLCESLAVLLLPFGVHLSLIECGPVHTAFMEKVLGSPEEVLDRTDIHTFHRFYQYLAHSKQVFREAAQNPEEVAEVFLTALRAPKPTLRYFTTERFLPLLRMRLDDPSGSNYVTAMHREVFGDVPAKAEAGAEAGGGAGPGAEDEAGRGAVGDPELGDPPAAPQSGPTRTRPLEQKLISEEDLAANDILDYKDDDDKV
Sequence of HSD17B2 (P37059 other isoform, or with tags, fused parts or gaps): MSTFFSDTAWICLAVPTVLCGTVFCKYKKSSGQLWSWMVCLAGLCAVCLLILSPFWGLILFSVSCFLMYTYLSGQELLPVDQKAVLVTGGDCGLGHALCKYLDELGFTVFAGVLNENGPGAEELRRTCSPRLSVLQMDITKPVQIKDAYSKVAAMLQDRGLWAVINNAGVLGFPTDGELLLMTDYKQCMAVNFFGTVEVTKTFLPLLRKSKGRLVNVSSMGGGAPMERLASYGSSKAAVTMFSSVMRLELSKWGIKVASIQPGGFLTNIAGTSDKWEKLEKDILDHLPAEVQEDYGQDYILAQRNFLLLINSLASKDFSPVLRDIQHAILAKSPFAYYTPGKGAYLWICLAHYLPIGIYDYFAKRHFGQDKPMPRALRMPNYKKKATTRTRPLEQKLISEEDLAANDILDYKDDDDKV
Sequence of HSD17B13 (Q7Z5P4 other isoform, or with tags, fused parts or gaps): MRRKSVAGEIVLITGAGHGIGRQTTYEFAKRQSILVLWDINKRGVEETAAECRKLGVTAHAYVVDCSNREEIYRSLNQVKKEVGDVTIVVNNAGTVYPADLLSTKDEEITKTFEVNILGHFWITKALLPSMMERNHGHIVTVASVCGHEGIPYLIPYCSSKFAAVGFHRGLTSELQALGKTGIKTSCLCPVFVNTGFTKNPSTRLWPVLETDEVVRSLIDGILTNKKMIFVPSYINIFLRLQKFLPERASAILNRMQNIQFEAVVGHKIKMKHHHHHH

Compound	Microsome Stability Human liver microsomes % Remaining @60 min [1] [%]	microsomal CLint at 1 h, 1 µM [1] [µL/min/mg]	half-life at 1 h, 1 µM [1] [h]	IC50 (HSD17B2) [µM]	IC50 (HSD17B13; [3]) [µM]	IC50 (HSD17B1) [µM]	microsomal CLint at 1 μM [1] [µL/min/mg]	half-life at 1 μM [1] [h]	Microsome Stability Mouse liver microsomes % Remaining @60 min [2] [%]	microsomal CLint at 1 h, 1 µM [2] [µL/min/mg]	half-life at 1 h, 1 µM [2] [h]	IC50 (HSD17B13; 150 nM HSD17B13, read-out: Inhibition of 150 nM of HSD17B13 IC50) [µM]	microsomal CLint at 1 μM [2] [µL/min/mg]	half-life at 1 μM [2] [h]
O=C(NC(c1ccccc1)c1ccc(-c2ccccc2)cc1)c1ccc(C(F)(F)F)[nH]c1=O (stereo not drawn) [Compound 2, N-([1,1′-biphenyl]-4-yl(phenyl)methyl)-2-oxo-6-(trifluoromethyl)-1,2-dihydropyridine-3-carboxamide]	3.40	110	0.21	8.02	0.74	> 30								
Cc1ccccc1C(NC(=O)c1ccc(C(F)(F)F)[nH]c1=O)c1ccccc1 (stereo not drawn) [Compound 5, N-(phenyl(o-tolyl)methyl)-2-oxo-6-(trifluoromethyl)-1,2-dihydropyridine-3-carboxamide]	16.00	52	0.444	15.3	0.85	> 30								
O=C(NC(c1ccccc1)c1ccccc1Cl)c1ccc(C(F)(F)F)[nH]c1=O (stereo not drawn) [Compound 9, N-((2-chlorophenyl)(phenyl)methyl)-2-oxo-6-(trifluoromethyl)-1,2-dihydropyridine-3-carboxamide]	82.00			8.48		> 30	< 9.6	> 2.42	16.80	59.6	0.388			
Cc1ccc(C(NC(=O)c2ccc(C(F)(F)F)[nH]c2=O)c2ccc(C)cc2)cc1 [Compound 15, N-(di-p-tolylmethyl)-2-oxo-6-(trifluoromethyl)-1,2-dihydropyridine-3-carboxamide]	41.70	30.2	0.765	11.2	0.26	> 30			5.60	96.8	0.238			
O=C(NC(c1ccc(Cl)cc1)c1ccc(Cl)cc1)c1ccc(C(F)(F)F)[nH]c1=O [Compound 17, N-(bis(4-chlorophenyl)methyl)-2-oxo-6-(trifluoromethyl)-1,2-dihydropyridine-3-carboxamide]	97.60			10.9	0.96	> 30	< 9.6	> 2.42	70.60	10.2	2.27			
O=C(NC(c1ccccc1)c1ccc(Cl)cc1)c1ccc(C(F)(F)F)[nH]c1=O (stereo not drawn) [Compound 21, N-((4-chlorophenyl)(phenyl)methyl)-2-oxo-6-(trifluoromethyl)-1,2-dihydropyridine-3-carboxamide]	73.00	10.8	2.14	12	0.75	> 30								
O=C(NC1c2ccccc2-c2ccccc21)c1ccc(C(F)(F)F)[nH]c1=O [Compound 25, N-(9H-fluoren-9-yl)-2-oxo-6-(trifluoromethyl)-1,2-dihydropyridine-3-carboxamide]	1.00	265	0.087	18.2	0.53	> 30								
Cc1ccc(C(NC(=O)c2ccc(C(F)(F)F)[nH]c2=O)c2ccccc2)cc1 (stereo not drawn) [Compound 27, N-(phenyl(p-tolyl)methyl)-2-oxo-6-(trifluoromethyl)-1,2-dihydropyridine-3-carboxamide]	0.40	511	0.0452	16.8	1.06	> 30						0.47		
O=C(Nc1cccc2c(O)cccc12)c1ccc(C(F)(F)F)[nH]c1=O [Compound 223, N-(5-hydroxynaphthalen-1-yl)-2-oxo-6-(trifluoromethyl)-1,2-dihydropyridine-3-carboxamide]	60.30	14.8	1.56	28.6	0.35	> 30			83.80				< 9.6	> 2.42
Nc1cccc2c(NC(=O)c3ccc(C(F)(F)F)[nH]c3=O)cccc12 [Compound 228, N-(5-aminonaphthalen-1-yl)-2-oxo-6-(trifluoromethyl)-1,2-dihydropyridine-3-carboxamide]	60.40	16.4	1.41	28	0.56	24.8			76.60				< 9.6	> 2.42
O=C(NC1CCCc2c(O)cccc21)c1ccc(C(F)(F)F)[nH]c1=O (stereo not drawn) [Compound 230, N-(5-hydroxy-1,2,3,4-tetrahydronaphthalen-1-yl)-2-oxo-6-(trifluoromethyl)-1,2-dihydropyridine-3-carboxamide]	83.40			40.7	0.21	> 30	< 9.6	> 2.42	94.70				< 9.6	> 2.42
COc1ccc2c(c1)Sc1cc(OC)ccc1C2NC(=O)c1ccc(C(F)(F)F)[nH]c1=O [Compound 241, N-(3,6-dimethoxy-9H-thioxanthen-9-yl)-2-oxo-6-(trifluoromethyl)-1,2-dihydropyridine-3-carboxamide]	78			> 100	0.03	15.8	< 9.6	> 2.42	64	13.4	1.72			
Cc1ccc2c(c1)Sc1cc(C)ccc1C2NC(=O)c1ccc(C(F)(F)F)[nH]c1=O [Compound 252, N-(3,6-dimethyl-9H-thioxanthen-9-yl)-2-oxo-6-(trifluoromethyl)-1,2-dihydropyridine-3-carboxamide]	73.50	11	2.1	19.3	0.01	5.84			28.60	41.7	0.553			
CCCc1cc(C(=O)NC2c3ccc(C)cc3Oc3cc(C)ccc32)c(=O)[nH]c1C(F)(F)F [Compound 521, N-(3,6-dimethyl-9H-xanthen-9-yl)-2-oxo-5-propyl-6-(trifluoromethyl)-1,2-dihydropyridine-3-carboxamide]				29.2	0.02	7.42								
N#Cc1ccc2c(c1)Oc1ccccc1C2NC(=O)c1ccc(C(F)(F)F)[nH]c1=O (stereo not drawn) [Compound 528, N-(3-cyano-9H-xanthen-9-yl)-2-oxo-6-(trifluoromethyl)-1,2-dihydropyridine-3-carboxamide]				23.2	0.09	17								

From patent US11957687B2 (REGENERON PHARMACEUTICALS, INC., priority 2019, dated 2024)
